Results on 16 molecules are retold here after PubChem BioAssay (NCI).

SMILES strings stand for the structures.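 Each compound was tested at five concentrations against cells in 96-well plates for 48 hours. GI50: concentration for 50% inhibition of growth. TGI marks complete inhibition of growth.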 A value given as a limit tells only on which side of the number the result lay.

Among the test systems are A549 NSCLC; NCI-H460 lung; OVCAR-4 ovarian; RPMI-8226 leukemia; SK-MEL-28 melanoma; TK-10 renal; NCI-H226 lung; SW-620 colon; COLO 205 colon.
Holding throughout (test): NCI-60 cell line screen, 48 h

Consider `COc1cc(CNc2ccc(C(C)C)cc2)cc(OC)c1OC`, for which the TGI was 34.2 µM in the assay with A549 NSCLC; 26.5 µM in the assay with NCI-H460 lung; 65.8 µM in the assay with OVCAR-4 ovarian; 38.2 µM in the assay on RPMI-8226 leukemia; 72.7 µM with SK-MEL-28 melanoma; more than 100 µM in the assay with TK-10 renal.

As for `COc1ccc(-c2cncn2-c2ccc(OC)cc2)cc1`, the GI50 was 20.6 µM in the assay on A549 NSCLC; 22.5 µM in the assay with NCI-H226 lung; 15.6 µM in the assay with NCI-H460 lung; 28.9 µM in the assay with OVCAR-4 ovarian; 10.9 µM in the assay on RPMI-8226 leukemia; 26.1 µM in the assay on SW-620 colon. Also, in the assay on TK-10 renal, the GI50 was 17.4 µM. Besides, the TGI with A549 NSCLC was 49.3 µM; in the assay with NCI-H226 lung it was 98.3 µM; in the assay with NCI-H460 lung it was 48.4 µM; in the assay with OVCAR-4 ovarian it was more than 100 µM; in the assay with RPMI-8226 leukemia it was 32.5 µM; with SW-620 colon it was more than 100 µM. The molecule further came in with a TGI in the assay with TK-10 renal of 41.9 µM.

For the molecule `O=C(CN1CCN(c2ccccc2)CC1)N1CCc2c([nH]c3ccccc23)C1c1cccnc1` (stereo not drawn), the TGI in the assay with A549 NSCLC is more than 100 µM; with COLO 205 colon, more than 100 µM; in the assay with NCI-H226 lung, more than 100 µM; in the assay with NCI-H460 lung it was more than 100 µM; with OVCAR-4 ovarian, more than 66.8 µM; in the assay on RPMI-8226 leukemia, more than 100 µM. Moreover, the TGI in the assay on SK-MEL-28 melanoma is more than 100 µM; in the assay with SW-620 colon, more than 100 µM; in the assay on TK-10 renal it was more than 45.7 µM.

`COc1ccc(NC(=O)c2cc(OC)c(OC)c(OC)c2)cc1`: the TGI is more than 100 µM in the assay on A549 NSCLC; more than 71.9 µM in the assay with COLO 205 colon; more than 100 µM in the assay on NCI-H226 lung; more than 100 µM in the assay with NCI-H460 lung; more than 100 µM in the assay with OVCAR-4 ovarian; more than 100 µM in the assay on RPMI-8226 leukemia. The TGI in the assay with SK-MEL-28 melanoma is 94.4 µM; with SW-620 colon, more than 100 µM; in the assay on TK-10 renal it was more than 100 µM.

For the molecule `CC(C)CC1=[N+]=C(NC#N)N=C(CCC(=O)Nc2ccccc2[N+](=O)[O-])C1`, the TGI in the assay with A549 NSCLC, in the assay on COLO 205 colon, in the assay with NCI-H226 lung, in the assay with NCI-H460 lung, with OVCAR-4 ovarian and in the assay with RPMI-8226 leukemia was more than 100 µM throughout. For the same molecule, the TGI with SK-MEL-28 melanoma, in the assay with SW-620 colon and in the assay on TK-10 renal was more than 100 µM throughout.

On to `Cc1ccc(C(O)c2cnc(C)n2Cc2ccccc2)cc1` (stereo not drawn), for which the TGI in the assay on A549 NSCLC, with COLO 205 colon, in the assay on NCI-H226 lung, with NCI-H460 lung, in the assay with OVCAR-4 ovarian and in the assay on RPMI-8226 leukemia was more than 100 µM throughout. In addition, the TGI in the assay with SK-MEL-28 melanoma, with SW-620 colon and in the assay with TK-10 renal was more than 100 µM in each case.

For the molecule `COc1cccc(C2c3cc4c(cc3OC(O)(CO)C2C(=O)O)OCO4)c1` (stereo not drawn) (tested in a mixture with another compound), the TGI in the assay on A549 NSCLC is more than 100 µM; with COLO 205 colon it was more than 100 µM; in the assay with NCI-H226 lung, more than 100 µM; with NCI-H460 lung, 49 µM; in the assay with OVCAR-4 ovarian it was more than 100 µM; in the assay on RPMI-8226 leukemia, more than 100 µM. Besides, the results for the TGI with SK-MEL-28 melanoma, in the assay on SW-620 colon and with TK-10 renal were 79.8 µM, more than 100 µM and more than 100 µM, respectively.

Take `CCCCCCCCCCCCCCCCCCCCCC(=O)Nc1ccn(C2OC(CO)C(O)C2O)c(=O)n1` (stereo not drawn): the TGI in the assay on A549 NSCLC, in the assay with COLO 205 colon, in the assay on NCI-H226 lung, in the assay with NCI-H460 lung, in the assay on OVCAR-4 ovarian and with RPMI-8226 leukemia was more than 100 µM each time. In addition, the TGI in the assay with SK-MEL-28 melanoma, with SW-620 colon and in the assay on TK-10 renal was more than 100 µM in each case.

On to `Cc1cccc(C(C)C)c1NC(=O)C(=O)CC(=O)c1c(C)n([O-])c2ccccc2[n+]1=O`, for which the TGI in the assay on A549 NSCLC is more than 100 µM; in the assay with COLO 205 colon, 88.3 µM; in the assay on NCI-H226 lung, more than 100 µM; with NCI-H460 lung, 60 µM; in the assay with OVCAR-4 ovarian, 95 µM; in the assay on RPMI-8226 leukemia it was 72.1 µM. Also, the TGI in the assay on SK-MEL-28 melanoma, with SW-620 colon and with TK-10 renal was more than 100 µM in each case.

Regarding `CC(=O)Oc1ccc(O)c(O)c1C/C=C(\C)CC/C=C(\C)CC/C=C(\C)CCC=C(C)C`, the TGI in the assay with A549 NSCLC was 1.55 µM; with COLO 205 colon, 0.341 µM; in the assay on NCI-H226 lung, 2.27 µM; with NCI-H460 lung, 1.31 µM; in the assay with OVCAR-4 ovarian it was 1.72 µM; in the assay on SK-MEL-28 melanoma, 2.19 µM. The TGI with SW-620 colon turned out to be 1.21 µM; in the assay on TK-10 renal it was 2.6 µM.

With `COc1ccc(O)c(C#N)c1C#N`, the TGI in the assay with A549 NSCLC, in the assay with COLO 205 colon, in the assay with NCI-H226 lung, in the assay with NCI-H460 lung, in the assay on OVCAR-4 ovarian and with RPMI-8226 leukemia was more than 100 µM in each case. The TGI in the assay with SW-620 colon and in the assay with TK-10 renal was more than 100 µM throughout.

Consider `CC/C=C\C/C=C\C/C=C\CCCCCCCC(=O)OCC`, for which the TGI in the assay on A549 NSCLC, in the assay with COLO 205 colon, with NCI-H226 lung, with OVCAR-4 ovarian, with RPMI-8226 leukemia and in the assay with SK-MEL-28 melanoma was more than 100 µM each time. Besides, the TGI with SW-620 colon and in the assay on TK-10 renal was more than 100 µM in each case.

Consider `CCCCCCCCCc1cc(=O)c2ccc(O)cc2o1`, for which the TGI with A549 NSCLC, with COLO 205 colon, with NCI-H226 lung, in the assay with NCI-H460 lung, in the assay on OVCAR-4 ovarian and with RPMI-8226 leukemia was more than 100 µM each time. Also, the values for the TGI in the assay with SK-MEL-28 melanoma, in the assay with SW-620 colon and in the assay on TK-10 renal were more than 100 µM, more than 100 µM and 91.3 µM, respectively.

In the case of `CSc1nc2c(nc(N)n2C2OCC(O)C(O)C2O)c(=O)n1C` (stereo not drawn), the TGI with A549 NSCLC, in the assay on COLO 205 colon, in the assay with NCI-H226 lung, in the assay with NCI-H460 lung, in the assay with OVCAR-4 ovarian and with SK-MEL-28 melanoma was more than 100 µM in each case. In addition, the TGI in the assay with SW-620 colon and in the assay on TK-10 renal was more than 100 µM throughout.

With `Cn1nc(-c2ccccc2)c(C(=O)/C=C/c2ccccc2)c(N2CCOCC2)c1=O`, the TGI with A549 NSCLC was more than 100 µM; in the assay with COLO 205 colon it was 35.9 µM; in the assay with NCI-H460 lung it was 54.7 µM; in the assay with RPMI-8226 leukemia, 59.1 µM; in the assay on SW-620 colon, more than 100 µM; with TK-10 renal, 89.4 µM.

For `CCOC(=O)NN1C(=O)C(=P(c2ccccc2)(c2ccccc2)c2ccccc2)C(C(=O)OCC)=C1C`, the TGI with A549 NSCLC, in the assay on COLO 205 colon, in the assay on NCI-H226 lung, with NCI-H460 lung, in the assay on OVCAR-4 ovarian and with RPMI-8226 leukemia was more than 100 µM throughout. In addition, the TGI in the assay with SW-620 colon and in the assay with TK-10 renal was more than 100 µM each time.
